Experimental data reported in ChEMBL document CHEMBL2429757, “Discovery of a novel series of potent non-nucleoside inhibitors of hepatitis C virus NS5B” (J Med Chem, 2013).

Experiment: Thermal aqueous solubility of the compound at pH 6.4 by high throughput assay
Assay type: physicochemical
Conditions: buffer

solubility: < 1 µg/mL
SMILES: COc1c(/C=C/c2ccc(NS(C)(=O)=O)cc2)cc(-c2ccc[nH]c2=O)cc1C(C)(C)C
